Reference: publication PMC3353862
Converted amounts (≈) assume the structure as drawn. Read-outs that look alike come from different tables or passages of the source.

Tests used:
[1] = tested on: bacterial protein synthesis (aminoacylation/translation system); experiment: aminoacylation/translation (A/T) assay; format: biochemical
[2] = tested on: E. faecalis; settings: cited from earlier work
[3] = tested on: M. catarrhalis; settings: Moraxella. catarrhalis; cited from earlier work
[4] = tested on: H. influenzae; settings: Haemophilus influenzae; cited from earlier work
[5] = tested on: S. pneumoniae; settings: cited from earlier work
[6] = tested on: S. aureus; settings: cited from earlier work
[7] = tested on: E. coli tolC mutants; settings: cited from earlier work
[8] = tested on: E. coli modified with PMBN; settings: cited from earlier work
[9] = tested on: E. faecalis; experiment: Broth microdilution MIC testing; format: cell-based, Enterococcus faecalis; settings: for MIC E. fae: E. faecalis; for MIC: Enterococcus faecalis, read-out: MIC E. fae
[10] = tested on: M. catarrhalis; experiment: Broth microdilution MIC testing; format: cell-based, Moraxella catarrhalis; settings: for MIC: Moraxella catarrhalis
[11] = tested on: H. influenzae; experiment: Broth microdilution MIC testing; format: cell-based, Haemophilus influenzae; settings: for MIC H. flu: H. influenzae; for MIC: Haemophilus influenzae, read-out: MIC H. flu
[12] = tested on: S. pneumoniae; experiment: Broth microdilution MIC testing; format: cell-based, Streptococcus pneumoniae; settings: for MIC S. pneumo: S. pneumoniae; for MIC: Streptococcus pneumoniae, read-out: MIC S. pneumo
[13] = tested on: S. aureus; experiment: Broth microdilution MIC testing; format: cell-based, Staphylococcus aureus; settings: for MIC: Staphylococcus aureus, read-out: MIC S. aureus
[14] = tested on: E. coli tolC mutants; experiment: Broth microdilution MIC testing; format: cell-based, Escherichia coli; settings: for MIC E. coli tolC: E. coli tolC mutants; for MIC: Escherichia coli, read-out: MIC E. coli tolC
[15] = tested on: E. coli modified with PMBN; experiment: Broth microdilution MIC testing; format: cell-based, Escherichia coli; settings: for MIC E. coli +PMBP: E. coli modified with PMBN; for MIC: Escherichia coli, read-out: MIC E. coli +PMBP
[16] = tested on: panel of bacteria; experiment: Antibacterial activity against the panel of bacteria (MIC, overall); format: cell-based; as to MIC (antibacterial activity grade): key: +: poor; ++: moderate; +++: good antibacterial activity
[17] = original hits retested, read-out: IC50 (retested in the A/T assay)
[18] = A/T assay, Table 1, read-out: IC50

SMILES | IC50 [1, 18] | MIC E. fae [9] | MIC M. cat [10] | MIC H. flu [11] | MIC S. pneumo [12] | MIC S. aureus [13] | MIC E. coli tolC [14] | MIC E. coli +PMBP [15] | MIC (antibacterial activity grade) ([16]; Table 3) | MIC [9] | MIC [10] | MIC [11] | MIC [12] | MIC [13] | MIC [14] | MIC [15] | also measured
Oc1nc(-c2ccccn2)nc2c1CN(Cc1cccc(F)c1)CC2 [Compound 321525] | – | – | – | – | – | – | – | – | – | – | – | – | – | – | – | – | IC50 [1, 17]: 2800 nM; MIC [2]: 32 µg/mL (≈ 95.1 µM); MIC [3]: 0.25 µg/mL (≈ 0.743 µM); MIC [4]: 4 µg/mL (≈ 11.9 µM); MIC [5]: 8 µg/mL (≈ 23.8 µM); MIC [6]: 32 µg/mL (≈ 95.1 µM); MIC [7]: 8 µg/mL (≈ 23.8 µM); MIC [8]: 32 µg/mL (≈ 95.1 µM)
COc1cccc(CN2CCc3nc(-c4ccccn4)nc(O)c3C2)c1 [Compound 321528] | – | – | – | – | – | – | – | – | – | – | – | – | – | – | – | – | IC50 [1, 17]: 1200 nM; MIC [2]: 128 µg/mL (≈ 367 µM); MIC [3]: 2 µg/mL (≈ 5.74 µM); MIC [4]: 8 µg/mL (≈ 23 µM); MIC [5]: 32 µg/mL (≈ 91.8 µM); MIC [6]: > 128 µg/mL; MIC [7]: 128 µg/mL (≈ 367 µM); MIC [8]: 32 µg/mL (≈ 91.8 µM)
CC(C)Oc1ccc(CN2CCc3nc(-c4ccccn4)[nH]c(=O)c3C2)cc1 [Compound 323365] | 2270 nM | 16 µg/mL (≈ 42.5 µM) | ≤0.12 µg/mL | 4 µg/mL (≈ 10.6 µM) | 4 µg/mL (≈ 10.6 µM) | 8 µg/mL (≈ 21.3 µM) | 4 µg/mL (≈ 10.6 µM) | 4 µg/mL (≈ 10.6 µM) | +++ | – | – | – | – | – | – | – | –
CC(C)(C)Oc1ccc(CN2CCc3nc(-c4ccccn4)[nH]c(=O)c3C2)cc1 [Compound 323366] | 2470 nM | 8 µg/mL (≈ 20.5 µM) | ≤0.12 µg/mL | 4 µg/mL (≈ 10.2 µM) | 2 µg/mL (≈ 5.12 µM) | 8 µg/mL (≈ 20.5 µM) | 4 µg/mL (≈ 10.2 µM) | 2 µg/mL (≈ 5.12 µM) | +++ | – | – | – | – | – | – | – | –
O=c1[nH]c(-c2ccccn2)nc2c1CN(Cc1cccc(Br)c1Br)CC2 [Compound 323367] | 1890 nM | 4 µg/mL (≈ 8.4 µM) | ≤0.12 µg/mL | 1 µg/mL (≈ 2.1 µM) | 2 µg/mL (≈ 4.2 µM) | 8 µg/mL (≈ 16.8 µM) | 2 µg/mL (≈ 4.2 µM) | 8 µg/mL (≈ 16.8 µM) | +++ | – | – | – | – | – | – | – | –
O=C(Nc1ccc(Cl)cc1)N1CCc2nc(-c3ccccn3)[nH]c(=O)c2C1 [Compound 323368] | 470 nM | – | – | – | – | – | – | – | – | > 128 µg/mL | > 128 µg/mL | > 128 µg/mL | > 128 µg/mL | > 128 µg/mL | > 128 µg/mL | > 128 µg/mL | antibacterial activity ([16]; panel of bacteria): complete loss of antibacterial activity
O=c1[nH]c(-c2ccccn2)nc2c1CN(CCc1ccc(Cl)cc1)CC2 [Compound 323370] | 280 nM | – | – | – | – | – | – | – | – | 16 µg/mL (≈ 43.6 µM) | ≤ 0.12 µg/mL | 2 µg/mL (≈ 5.45 µM) | 4 µg/mL (≈ 10.9 µM) | 16 µg/mL (≈ 43.6 µM) | 8 µg/mL (≈ 21.8 µM) | 8 µg/mL (≈ 21.8 µM) | MIC (antibacterial activity grade) ([16]; Table 2): +++
CC1CN(Cc2ccc(Cl)cc2)Cc2c1nc(-c1ccccn1)[nH]c2=O (stereo not shown) [Compound 332054] | 7400 nM | – | – | – | – | – | – | – | +++ | 8 µg/mL (≈ 21.8 µM) | ≤ 0.12 µg/mL | 1 µg/mL (≈ 2.73 µM) | 2 µg/mL (≈ 5.45 µM) | 4 µg/mL (≈ 10.9 µM) | 2 µg/mL (≈ 5.45 µM) | 1 µg/mL (≈ 2.73 µM) | –
O=c1[nH]c(-c2ccccn2)nc2c1CCN(Cc1ccc(Cl)cc1)CC2 [Compound 332058] | 560 nM | – | – | – | – | – | – | – | – | 16 µg/mL (≈ 43.6 µM) | ≤ 0.12 µg/mL | 0.5 µg/mL (≈ 1.36 µM) | 2 µg/mL (≈ 5.45 µM) | 16 µg/mL (≈ 43.6 µM) | 4 µg/mL (≈ 10.9 µM) | 4 µg/mL (≈ 10.9 µM) | MIC (antibacterial activity grade) ([16]; Table 2): +++
